# Measurements from paper PMC4904242, “Comparative chemical genomics reveal that the spiroindolone antimalarial KAE609 (Cipargamin) is a P-type ATPase inhibitor” (Scientific Reports, 2016).
# Molecular target: T1, ScPma1p (Saccharomyces cerevisiae, UniProt P05030)
# T1 construct: gene PMA1; ScPma1p-coated secretory vesicles from S. cerevisiae overexpressing ScPMA1
# Experiment: cell-free vesicle ATPase assay (Pi release)
# Type: biochemical
# T1 sequence (P05030 whole entry): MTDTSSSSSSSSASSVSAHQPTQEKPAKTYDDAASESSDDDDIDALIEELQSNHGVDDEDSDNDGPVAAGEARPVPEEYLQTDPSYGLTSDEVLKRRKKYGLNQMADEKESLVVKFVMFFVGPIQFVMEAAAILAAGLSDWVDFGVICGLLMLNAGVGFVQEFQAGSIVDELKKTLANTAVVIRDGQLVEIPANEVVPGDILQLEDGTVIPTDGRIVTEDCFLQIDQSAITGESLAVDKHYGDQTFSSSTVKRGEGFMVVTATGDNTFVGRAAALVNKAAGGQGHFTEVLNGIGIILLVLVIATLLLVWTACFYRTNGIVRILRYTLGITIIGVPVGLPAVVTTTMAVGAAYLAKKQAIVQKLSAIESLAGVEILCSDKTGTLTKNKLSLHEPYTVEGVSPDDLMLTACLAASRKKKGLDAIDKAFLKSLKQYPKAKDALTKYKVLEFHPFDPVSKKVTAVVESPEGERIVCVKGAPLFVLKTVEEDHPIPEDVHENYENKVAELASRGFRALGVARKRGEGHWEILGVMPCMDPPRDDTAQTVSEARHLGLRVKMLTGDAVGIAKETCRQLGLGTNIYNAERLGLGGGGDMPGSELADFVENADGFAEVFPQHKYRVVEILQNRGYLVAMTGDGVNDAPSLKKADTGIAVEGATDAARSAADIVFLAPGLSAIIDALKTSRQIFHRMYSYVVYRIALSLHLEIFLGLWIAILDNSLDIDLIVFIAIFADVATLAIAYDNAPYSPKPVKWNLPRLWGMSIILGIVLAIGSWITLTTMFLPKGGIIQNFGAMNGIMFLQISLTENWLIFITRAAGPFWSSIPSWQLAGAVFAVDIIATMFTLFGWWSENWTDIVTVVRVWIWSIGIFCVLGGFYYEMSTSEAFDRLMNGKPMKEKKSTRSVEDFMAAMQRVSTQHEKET
smiles,measurement,value
"C[C@H]1Cc2c([nH]c3cc(Cl)c(F)cc23)[C@@]2(N1)C(=O)Nc1ccc(Cl)cc12 [6′F 7′Cl, KAE609]",IC50,81.1 nM
